What is called IC50 is the concentration that gives 50% inhibition. The low end stands for greater potency in that assay, the high end for weaker potency in that assay. Usually half-life stands for the time needed for the level to fall by half in the phase considered.

The source of these data is ChEMBL document CHEMBL1142763, “Dibenzodioxocinones--a new class of CETP inhibitors” (Bioorg Med Chem Lett, 2005).

For data set [1], the target named is T1, Cholesteryl ester transfer protein (Homo sapiens, UniProt P11597).
T1 sequence (P11597 whole entry): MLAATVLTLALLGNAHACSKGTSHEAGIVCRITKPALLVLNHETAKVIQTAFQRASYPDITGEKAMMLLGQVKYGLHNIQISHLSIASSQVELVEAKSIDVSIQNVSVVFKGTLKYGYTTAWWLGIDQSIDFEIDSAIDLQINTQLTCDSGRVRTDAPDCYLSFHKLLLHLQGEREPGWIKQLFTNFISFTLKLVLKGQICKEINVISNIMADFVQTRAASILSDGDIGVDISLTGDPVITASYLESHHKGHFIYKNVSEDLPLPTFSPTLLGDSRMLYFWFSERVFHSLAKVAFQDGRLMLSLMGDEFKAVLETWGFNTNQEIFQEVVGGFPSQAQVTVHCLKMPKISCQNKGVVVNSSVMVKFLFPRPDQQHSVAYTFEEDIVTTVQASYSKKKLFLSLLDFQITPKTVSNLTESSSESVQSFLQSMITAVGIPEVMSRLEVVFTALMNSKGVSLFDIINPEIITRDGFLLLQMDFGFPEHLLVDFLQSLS
Description: Inhibitory concentration against Cholesterol ester transfer protein (CETP) in CETP fluorescence assay.

The nature of data set [2]: (§1) Half life period […] determined in rat plasma. The class given is ADME, organism-based.
A short description of data set [3]: as §1. The class given is ADME, cell-free.

On to `COc1c([C@@H](O)CC(C)C)ccc2c1C(=O)Oc1cc(C)cc(OC(=O)N3CC4CCC4C3)c1O2` (some centres not stated), for which, in data set [1], the IC50 is 400 nM. This lies in the sub-micromolar range.

Turning to `COc1c([C@@H](O)CC(C)C)ccc2c1C(=O)Oc1cc(C)cc(OS(=O)(=O)C(F)(F)F)c1O2`, in data set [1], the IC50 was found to be 10000 nM. This IC50 is about 25-fold higher than that of the compound before. On the same count and under the same terms, under `COc1c([C@@H](O)CC(C)C)ccc2c1C(=O)Oc1cc(C)cc(OCC3CCCC3)c1O2` stands 1500 nM.

As to `COc1c([C@@H](O)CC(C)C)ccc2c1C(=O)Oc1cc(C)cc(OC(=O)N3CCCC3)c1O2`, in data set [1], the IC50 amounted to 800 nM. For the same compound, the half-life in data set [2] is 2.9 h. `COc1c([C@@H](O)CC(C)C)ccc2c1C(=O)Oc1cc(C)cc(O)c1O2` came in with an IC50 in data set [1] greater than 20000 nM. `COc1c([C@@H](O)CC(C)C)ccc2c1C(=O)Oc1cc(C)cc(OC(=O)C3CC4C=CC3C4)c1O2` (some centres not stated) returned an IC50 in data set [1] of 200 nM. In data set [3], this compound came in with a half-life of less than 0.1 h.

As to `COc1c([C@@H](O)CC(C)C)ccc2c1C(=O)Oc1cc(C)cc(OCc3ccccc3)c1O2`, the midpoint of inhibition in data set [1], the IC50, lay at 13000 nM. Regarding `COc1c([C@@H](O)CC(C)C)ccc2c1C(=O)Oc1cc(C)cc(OC(=O)C3(C)C4CCC3CC4)c1O2` (some centres not stated), in data set [1], the IC50 was 200 nM. Besides, the half-life in data set [3] is 4.2 h.

For `CCCCCS(=O)(=O)Oc1cc(C)cc2c1Oc1ccc([C@@H](O)CC(C)C)c(OC)c1C(=O)O2`, it took 4000 nM to reach half-maximal inhibition in data set [1] (IC50).

`COc1c([C@@H](O)CC(C)C)ccc2c1C(=O)Oc1cc(C)cc(OC(=O)C3CCCC3)c1O2` showed an IC50 in data set [1] of 600 nM. Compound `COc1c([C@@H](O)CC(C)C)ccc2c1C(=O)Oc1cc(C)cc(OC(=O)C(C)(C)C)c1O2` showed an IC50 in data set [1] of 800 nM. Moreover, the half-life in data set [2] was less than 0.1 h. With `COc1c([C@@H](O)CC(C)C)ccc2c1C(=O)Oc1cc(C)cc(OC(=O)[N+]34CCC(CC3)C4)c1O2`, in data set [1], 200 nM corresponded to half-maximal inhibition (IC50). In addition, the half-life in data set [2] was 3.9 h.

Consider `COc1c([C@@H](O)CC(C)(C)C)ccc2c1C(=O)Oc1c(Cl)c(C)c(C)c(OC(=O)C3(C)C4CCC3CC4)c1O2` (some centres not stated), for which the half-maximal inhibitory concentration (IC50) in data set [1] was determined as 30 nM. In other words, the double-digit nanomolar range. In turn, `COc1c([C@@H](O)CC(C)(C)C)ccc2c1C(=O)Oc1c(Cl)c(C)c(Br)c(OC(=O)C3(C)C4CCC3CC4)c1O2` (some centres not stated) registered an IC50 in data set [1] of 32 nM. For `COc1c([C@@H](O)CC(C)C)ccc2c1C(=O)Oc1c(Cl)c(C)c(C)c(OC(=O)C3(C)C4CCC3CC4)c1O2` (some centres not stated), the IC50 in data set [1] is 30 nM. The same compound showed a half-life in data set [3] greater than 3 h. Take `COc1c([C@@H](O)CC(C)C)ccc2c1C(=O)Oc1cc(C)cc(OS(=O)(=O)c3c(F)cc(F)cc3F)c1O2`: half-maximal inhibition in data set [1] (IC50) required 6000 nM.

On to `COc1c([C@@H](O)CC(C)C)ccc2c1C(=O)Oc1c(Cl)c(C)c(Br)c(OC(=O)C3(C)C4CCC3CC4)c1O2` (some centres not stated), for which the IC50 in data set [1] is 60 nM. Besides, the half-life in data set [3] was greater than 3 h. For the compound `COc1c([C@@H](O)CC(C)C)ccc2c1C(=O)Oc1cc(C)cc(OC(=O)N(C(C)C)C(C)C)c1O2`, the IC50 in data set [1] came to 700 nM. The half-life in data set [2] is greater than 5 h.

On to `CCN(CC)C(=O)Oc1cc(C)cc2c1Oc1ccc([C@@H](O)CC(C)C)c(OC)c1C(=O)O2`, for which the IC50 in data set [1] came out at 3000 nM. `COc1c([C@@H](O)CC(C)C)ccc2c1C(=O)Oc1cc(C)cc(OS(=O)(=O)C(C)C)c1O2`: the IC50 in data set [1] turned out to be 700 nM. In data set [1], `CCc1c(C)c(Cl)c2c(c1OC(=O)C1(C)C3CCC1CC3)Oc1ccc([C@@H](O)CC(C)(C)C)c(OC)c1C(=O)O2` (some centres not stated) returned an IC50 of 15 nM. In data set [1], `COc1c([C@@H](O)CC(C)C)ccc2c1C(=O)Oc1cc(C)cc(OC(=O)C3(C)CC4C=CC3C4)c1O2` (some centres not stated) registered a half-inhibitory concentration (IC50) of 200 nM. In addition, the half-life in data set [3] was 0.64 h.

Consider `COc1c(C(O)C(C)C)ccc2c1C(=O)Oc1cc(C)cc(OCCC(C)C)c1O2` (racemic), for which the midpoint of inhibition in data set [1], the IC50, lay at 4000 nM. Still for that read-out and setting: under `COc1c(C(O)CC2CCCCC2)ccc2c1C(=O)Oc1cc(C)cc(OCCC(C)C)c1O2` (racemic) stands greater than 20000 nM. The compound `COc1c(C(O)CC2CC2)ccc2c1C(=O)Oc1cc(C)cc(OCCC(C)C)c1O2` (racemic) returned an IC50 in data set [1] of 10000 nM. `COc1c(C(O)CCC(C)C)ccc2c1C(=O)Oc1cc(C)cc(OCCC(C)C)c1O2` (racemic) registered an IC50 in data set [1] greater than 20000 nM. Same read-out and setting: under `COc1c(C(O)CC(C)(C)C)ccc2c1C(=O)Oc1cc(C)cc(OCCC(C)C)c1O2` (racemic) stands 1500 nM; under `COc1c(C(O)CC(C)C)ccc2c1C(=O)Oc1cc(C)cc(OCCC(C)C)c1O2` (racemic), 2000 nM.
